This note sets out measurements from patent US9562057B2, “(Thieno[2,3-b][1,5]benzoxazepin-4-yl)piperazin-1-yl compounds as dual activity H1 inverse agonists/5-HT2A antagonists” (Eli Lilly and Company, priority 2013, dated 2017).

Structures are written as SMILES. Where a name gives a salt, the structure may show the parent alone. A value given as a limit tells only on which side of the number the result lay.

One may read the Ki as a measure of affinity in units of concentration, obtained from inhibition or displacement. One may read the clearance as the rate of elimination divided by the concentration.

Series [1] concerns the target T1, recombinant H1 receptor (human) (Homo sapiens, UniProt P35367).
T1 construct: expressed in transfected cells; host or cells: HEK-293
Description: H1 competition binding assay ([3H]-Pyrilamine, SPA). On the procedure:
[^3H]-Pyrilamine binding experiments are carried out in SPA (scintillation proximity assay) 96-well format. Membranes used in this assay are prepared from HEK-293 cells stably expressing recombinant H1 receptor (human). The incubation is initiated by the addition of a mixture of WGA PVT SPA beads (1 mg/well, Perkin Elmer (MA, USA) RPNQ0001) and 3 μg membranes to assay buffer (67 mM Tris; pH 7.6) containing 3.5 nM [^3H]-Pyrilamine and varying concentrations of the test compound (10 point concentration response curves). Non-specific binding is determined in the presence of 10 μM Triprolidine. Samples are incubated for 4 hr. at room temperature (22° C.) and then read in a Microbeta® Trilux.
Binding data analysis Curves are evaluated using a 4-parameter logistic nonlinear equation to obtain the concentration of competitor causing 50% inhibition of radioligand binding (IC50). Equilibrium dissociation constants (Ki) are calculated according to the equation Ki=IC50/(1+L/Kd), where L equals the concentration of radioligand used in the experiment and Kd equals the equilibrium dissociation constant of the radioligand for the receptor, determined from standard saturation analysis or homologous competition experiments. Reported values for Ki, where n values are indicated, are shown as geometric mean±the standard error of the mean (SEM), with the number of replicate determinations indicated by n. […]

The target in series [2] is T2, recombinant 5-HT2C receptor (human) (Homo sapiens, UniProt P28335).
T2 construct: expressed in transfected cells; host or cells: AV-12
T2 sequence (P28335 33-458): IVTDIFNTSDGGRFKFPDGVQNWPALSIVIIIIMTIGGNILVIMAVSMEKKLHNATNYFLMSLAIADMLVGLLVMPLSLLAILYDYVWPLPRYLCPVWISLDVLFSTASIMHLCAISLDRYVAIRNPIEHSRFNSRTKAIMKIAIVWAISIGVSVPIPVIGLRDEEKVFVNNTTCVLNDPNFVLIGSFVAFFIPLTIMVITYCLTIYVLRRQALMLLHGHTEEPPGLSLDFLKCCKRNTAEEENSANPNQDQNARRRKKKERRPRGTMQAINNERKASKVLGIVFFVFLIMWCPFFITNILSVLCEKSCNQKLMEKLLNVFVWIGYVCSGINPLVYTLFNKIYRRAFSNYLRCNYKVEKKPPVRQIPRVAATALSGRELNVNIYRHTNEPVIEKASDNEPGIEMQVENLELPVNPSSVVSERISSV
Put plainly: 5-HT2C competition binding assay ([125I]-(±)DOI, SPA). On the procedure:
[^125I]-(±)DOI binding experiments are carried out in SPA 96-well format. Membranes used in this assay are prepared from AV-12 cells stably expressing recombinant 5-HT2C receptor (human). The incubation is initiated by the addition of a mixture of WGA PVT SPA beads (0.5 mg/well, Perkin Elmer (MA, USA), RPNQ0001) and 2.5 μg membranes to assay buffer (50 mM Tris-HCl, 10 mM MgCl2, 0.5 mM EDTA, 10 μM pargyline, 0.1% ascorbic acid, pH7.4) containing 0.2 nM [[^125I]-(±)DOI and varying concentrations of the test compound (10 point concentration response curves). Non-specific binding is determined in the presence of 20 μM 1-(1-naphthyl) piperazine. Samples are incubated for 4 hr. at room temperature (22° C.) and then read in a Microbeta® Trilux.
Binding data analysis Curves are evaluated using a 4-parameter logistic nonlinear equation to obtain the concentration of competitor causing 50% inhibition of radioligand binding (IC50). Equilibrium dissociation constants (Ki) are calculated according to the equation Ki=IC50/(1+L/Kd), where L equals the concentration of radioligand used in the experiment and Kd equals the equilibrium dissociation constant of the radioligand for the receptor, determined from standard saturation analysis or homologous competition experiments. […]

The target of another series is Dopamine D1 (Homo sapiens, UniProt P21728). Description: Dopamine D1 binding. From the text:
(§1) Further, the compounds of the invention may be tested in binding assays and functional activity assays by well known methods for other physiologically important receptors such as, but not limited to, the hERG channel, other serotonin receptors (specifically 5-HT1B and 5-HT1D receptors, lack of agonist activity at 5-HT2B receptors, 5-HT2C, 5-HT5, 5-HT6, and 5-HT7 receptors), dopaminergic receptors (specifically D1, D2, and D3), GABAA receptors, adrenergic receptors and monoamine transporters.

The target of a further series is 5-HT1D (Homo sapiens, UniProt P28221). Description: 5-HT1D binding.
Sequence of 5-HT1D (P28221 whole entry, species assumed): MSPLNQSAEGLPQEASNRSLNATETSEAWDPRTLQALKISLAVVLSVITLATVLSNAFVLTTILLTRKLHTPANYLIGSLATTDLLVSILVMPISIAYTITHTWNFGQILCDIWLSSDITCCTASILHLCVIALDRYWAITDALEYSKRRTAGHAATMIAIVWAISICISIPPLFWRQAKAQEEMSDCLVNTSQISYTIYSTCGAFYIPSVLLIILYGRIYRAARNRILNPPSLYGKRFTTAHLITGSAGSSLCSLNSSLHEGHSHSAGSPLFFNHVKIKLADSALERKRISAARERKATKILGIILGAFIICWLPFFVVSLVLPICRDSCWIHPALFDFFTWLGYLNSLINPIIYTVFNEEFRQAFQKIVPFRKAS
Text: as §1

Another series can be described thus: Plasma clearance. In kind it is in vivo. The settings on record: dog, 1 mg/kg, male Beagle dogs, intravenous, 1 mL/kg of 1.0 mg/mL (free base equivalents). On the procedure:
Male Beagle dogs (body weight range 10-12 kg) are obtained from Marshall Bioresources, USA. Test compound is administered intravenously in solution (1 mL/kg) in 20% Captisol® in 22.5 mM phosphate buffer, pH 2, at a final drug concentration of 1.0 mg/mL (free base equivalents). Blood samples are obtained from the jugular vein over 24 hr. Samples of plasma are obtained by centrifugation and stored frozen (−20° C.) prior to analysis.
Frozen plasma samples are thawed to room temperature for bioanalysis of concentrations of test compound. A related internal standard compound in acetonitrile/methanol (1:1, v/v) is added to all samples of plasma (1:1, v/v). The samples are centrifuged to remove precipitated protein prior to analysis. The supernatants are analysed by injection and rapid gradient elution on a Javelin Betasil C18 column (20×2.1 mm cartridge, Mobile phase A: Water/1 M NH4HCO3, 2000:10 v/v, Mobile Phase B: MeOH/1 M NH4HCO3, 2000:10 v/v). The eluted analytes are detected by LC-MS-MS analysis using a Sciex API 4000 triple quadrupole mass spectrometer. Concentrations of compound are determined from standards prepared and analysed under identical conditions. Clearance is calculated using non-compartmental analysis in Watson 7.4, Thermo Fisher Scientific, Inc.

Sequence of Dopamine D1 (P21728 whole entry): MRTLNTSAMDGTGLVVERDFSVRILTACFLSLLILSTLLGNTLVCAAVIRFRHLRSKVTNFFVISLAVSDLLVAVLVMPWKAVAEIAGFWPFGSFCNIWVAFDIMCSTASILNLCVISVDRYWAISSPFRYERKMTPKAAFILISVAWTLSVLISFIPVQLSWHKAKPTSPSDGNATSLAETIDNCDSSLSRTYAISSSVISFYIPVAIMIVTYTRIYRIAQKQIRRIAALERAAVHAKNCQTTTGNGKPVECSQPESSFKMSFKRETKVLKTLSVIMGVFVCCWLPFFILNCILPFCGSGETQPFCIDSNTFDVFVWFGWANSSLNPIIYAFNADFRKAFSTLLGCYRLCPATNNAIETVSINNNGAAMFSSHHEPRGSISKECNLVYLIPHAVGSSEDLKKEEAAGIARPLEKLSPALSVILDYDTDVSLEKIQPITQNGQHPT
T1 sequence (P35367 whole entry): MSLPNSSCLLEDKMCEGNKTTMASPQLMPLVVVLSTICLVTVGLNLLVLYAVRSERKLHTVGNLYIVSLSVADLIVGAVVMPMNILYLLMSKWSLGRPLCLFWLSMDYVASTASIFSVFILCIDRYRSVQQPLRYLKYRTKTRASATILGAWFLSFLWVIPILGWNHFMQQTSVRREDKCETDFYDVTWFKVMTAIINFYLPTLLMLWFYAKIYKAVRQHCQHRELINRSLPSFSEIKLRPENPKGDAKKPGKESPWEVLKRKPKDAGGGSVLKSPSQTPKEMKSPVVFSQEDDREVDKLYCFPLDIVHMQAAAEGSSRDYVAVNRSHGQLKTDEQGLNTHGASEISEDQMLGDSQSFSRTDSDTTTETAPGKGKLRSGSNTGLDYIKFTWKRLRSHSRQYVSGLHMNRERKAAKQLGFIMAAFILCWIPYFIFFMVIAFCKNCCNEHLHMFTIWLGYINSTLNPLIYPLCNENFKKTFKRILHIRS

As for `Cc1ccc2c(c1)Oc1sc(C3CC3)cc1C(N1CCN(CC(C)(C)C(=O)O)CC1)=N2` [Example 2, 3-[4-(2-Cyclopropyl-8-methyl-thieno[2,3-b][1,5]benzoxazepin-4-yl)piperazin-1-yl]-2,2-dimethyl-propanoic acid dihydrochloride], the Ki was 43.2 nM in series [1], 493 nM in series [2], 996 nM at Dopamine D1 and above 3980 nM at 5-HT1D. Further, the clearance in “Plasma clearance” was determined as 6.06 mL/min/kg.
